Measurements: patent US5041567A, “Antibacterial monic acid derivatives” (Beecham Group plc, priority 1982, dated 1991)
Values after ≈ are worked out from the molar mass of the structure shown. Like-named read-outs stand apart in the source and are kept apart here.

Columns and labels:
Strep. pneumoniae CN33 = experiment: MIC against human bacteria in vitro; format: cell-based; settings: Streptococcus pneumoniae; Strep. pneumoniae CN33; 5% chocolated horse blood agar, 18 hours; read-out: MIC
M. suipneumoniae UCD 1 = experiment: MIC against mycoplasma in vitro; format: cell-based; settings: Mesomycoplasma hyopneumoniae, UCD1, 144 h; M. suipneumoniae UCD 1; 6 days, 37° C.; read-out: MIC
Strep. agalactiae 2788-B = experiment: MIC against human bacteria in vitro; format: cell-based; settings: Streptococcus agalactiae; Strep. agalactiae 2788-B; 5% chocolated horse blood agar, 18 hours; read-out: MIC
Bord. bronchiseptica B08 = experiment: MIC against veterinary bacteria in vitro; settings: Bordetella bronchiseptica, B08, 18 h
Protocol: (§1) The activity of the compounds of the Examples against various veterinarily important bacteria, was assayed in vitro using two-fold serial dilutions in Diagnostic Sensitivity Test Agar inoculated with 10^4 organisms.

Staph. aureus Russell = experiment: MIC against human bacteria in vitro; format: cell-based; settings: Staphylococcus aureus; Staph. aureus Russell; 5% chocolated horse blood agar, 18 hours; read-out: MIC
M. suipneumoniae HK(2) = experiment: MIC against mycoplasma in vitro; format: cell-based; settings: Mesomycoplasma hyopneumoniae, 144 h
[1] = test system: Staph. aureus B4 (pen. resistant); experiment: MIC against veterinary bacteria in vitro; settings: Staphylococcus aureus, 18 h
Protocol: as §1

M. bovis NCTC 10131 = experiment: microbe, parasite or virus in culture; format: cell-based; settings: NCTC10131, 144 h
Past. multocida PA1 = experiment: MIC against veterinary bacteria in vitro; settings: Pasteurella multocida, PA1, 18 h
Protocol: as §1

[2] = test system: Ps. aeruginosa NCTC 10662; experiment: MIC against human bacteria in vitro; format: cell-based; settings: Pseudomonas aeruginosa, NCTC10662; Ps. aeruginosa NCTC 10662; 5% chocolated horse blood agar, 18 hours; read-out: MIC
M. suipneumoniae NB12 = experiment: MIC against mycoplasma in vitro; format: cell-based; settings: Mesomycoplasma hyopneumoniae
[3] = test system: M. bovigenitalium ATCC 14173; experiment: MIC against mycoplasma in vitro; format: cell-based; settings: 144 h
Strep. dysgalactiae SPD1 = experiment: MIC against veterinary bacteria in vitro; settings: Streptococcus dysgalactiae, SPD1, 18 h
Protocol: as §1

Past. multocida PA2 = experiment: MIC against veterinary bacteria in vitro; settings: Pasteurella multocida, PA2, 18 h
Protocol: as §1

M. suipneumoniae LABER = experiment: MIC against mycoplasma in vitro; format: cell-based; settings: Mesomycoplasma hyopneumoniae, 144 h
[4] = test system: M. hyosynoviae ATCC 25591; experiment: MIC against mycoplasma in vitro; format: cell-based; settings: 144 h; M. hyosynoviae ATCC 25591; 6 days, 37° C.; read-out: MIC
M. hyorhinis ATCC 25021 = experiment: MIC against mycoplasma in vitro; format: cell-based; settings: Mesomycoplasma hyorhinis, ATCC25021, 144 h; M. hyorhinis ATCC 25021; 6 days, 37° C.; read-out: MIC
M. hyorhinis ATCC 23234 = experiment: MIC against mycoplasma in vitro; format: cell-based; settings: Mesomycoplasma hyorhinis, ATCC23234, 144 h
M. suipneumoniae TAM 6N = experiment: MIC against mycoplasma in vitro; format: cell-based; settings: Mesomycoplasma hyopneumoniae, TAM6N, 144 h
[5] = test system: Strep. suis (group D) SPS11; experiment: MIC against veterinary bacteria in vitro; settings: Streptococcus suis, 18 h
Protocol: as §1

Staph. aureus W2827 = experiment: MIC against human bacteria in vitro; format: cell-based; settings: Staphylococcus aureus; Staph. aureus W2827; 5% chocolated horse blood agar, 18 hours; read-out: MIC
[6] = test system: Erysipelothrix rhusiopathiae NCTC 8163; experiment: MIC against veterinary bacteria in vitro; settings: Erysipelothrix rhusiopathiae, NCTC8163, 18 h
Protocol: as §1

[7] = test system: M. suipneumoniae ATCC 25095; experiment: MIC against mycoplasma in vitro; format: cell-based; settings: Mesomycoplasma hyopneumoniae, ATCC25095, 144 h; M. suipneumoniae ATCC 25095; 6 days, 37° C.; read-out: MIC
P. mirabilis 889 = experiment: MIC against human bacteria in vitro; format: cell-based; settings: Proteus mirabilis; P. mirabilis 889; 5% chocolated horse blood agar, 18 hours; read-out: MIC
K. aerogenes A = experiment: MIC against human bacteria in vitro; format: cell-based; settings: Klebsiella aerogenes; K. aerogenes A; 5% chocolated horse blood agar, 18 hours; read-out: MIC
[8] = test system: Haemophilus influenzae Wy21; experiment: MIC against human bacteria in vitro; format: cell-based; settings: Haemophilus influenzae Wy21; 5% chocolated horse blood agar, 18 hours; read-out: MIC
M. suipneumoniae MS 16 = experiment: MIC against mycoplasma in vitro; format: cell-based; settings: Mesomycoplasma hyopneumoniae, MS16, 144 h
Bord. bronchiseptica B09 = experiment: MIC against veterinary bacteria in vitro; settings: Bordetella bronchiseptica, B09, 18 h
Protocol: as §1

[9] = test system: Corynebacterium xerosis 9755; experiment: MIC against human bacteria in vitro; format: cell-based; settings: Corynebacterium xerosis 9755; 5% chocolated horse blood agar, 18 hours; read-out: MIC
[10] = test system: Neisseria catarrhalis 1502; experiment: MIC against human bacteria in vitro; format: cell-based; settings: Neisseria catarrhalis 1502; 5% chocolated horse blood agar, 18 hours; read-out: MIC
[11] = test system: M. suipneumoniae J2206/183^b; experiment: MIC against mycoplasma in vitro; format: cell-based; settings: Mesomycoplasma hyopneumoniae, 144 h
Strep. faecalis I = experiment: MIC against human bacteria in vitro; format: cell-based; settings: Enterococcus faecalis; Strep. faecalis I; 5% chocolated horse blood agar, 18 hours; read-out: MIC
[12] = test system: Corynebacterium pyogenes CY1; experiment: MIC against veterinary bacteria in vitro; settings: CY1, 18 h
Protocol: as §1

Past. haemolytica PA5 = experiment: MIC against veterinary bacteria in vitro; settings: Mannheimia haemolytica, PA5, 18 h
Protocol: as §1

| Structure (SMILES) | MIC (Strep. pneumoniae CN33) | MIC (M. suipneumoniae UCD 1) | MIC (Strep. agalactiae 2788-B) | MIC (Bord. bronchiseptica B08) | MIC (Staph. aureus Russell) | MIC [1] | MIC (M. bovis NCTC 10131) | MIC (Past. multocida PA1) | MIC [2] | MIC (Strep. dysgalactiae SPD1) | MIC (Past. multocida PA2) | MIC (M. suipneumoniae LABER) | MIC [4] | MIC (M. hyorhinis ATCC 25021) | MIC [5] | MIC (Staph. aureus W2827) | MIC [6] | MIC [7] | MIC (P. mirabilis 889) | MIC (K. aerogenes A) | also measured |
| --- | --- | --- | --- | --- | --- | --- | --- | --- | --- | --- | --- | --- | --- | --- | --- | --- | --- | --- | --- | --- | --- |
| C/C(=C\c1ncc(-c2ccc(C(=O)O)cc2)o1)C[C@@H]1OC[C@H](C[C@@H]2O[C@H]2[C@@H](C)[C@H](C)O)[C@@H](O)[C@H]1O [Example 17, Sodium 4-[2-(1-normon-2-yl)-5-oxazolyl] benzoate A] | 64 µg/mL | 5 µg/mL | 32 µg/mL | > 80 µg/mL | > 64 µg/mL | 10 µg/mL | 2.5 µg/mL | 10 µg/mL | > 64 µg/mL | 2.5 µg/mL | 1.25 µg/mL | 2.5 µg/mL | > 10 µg/mL | 5 µg/mL | 40 µg/mL | > 64 µg/mL | 80 µg/mL | 5 µg/mL | > 64 µg/mL | > 64 µg/mL | MIC (M. suipneumoniae HK(2); M. suipneumoniae HK(2), 6 days, 37° C., read-out: MIC): 10 µg/mL; MIC (M. suipneumoniae NB12; NB12, 144 h): 2.5 µg/mL; MIC ([3]; M. bovigenitalium ATCC 14173, 6 days, 37° C., read-out: MIC): 5 µg/mL; MIC (M. hyorhinis ATCC 23234; M. hyorhinis ATCC 23234, 6 days, 37° C., read-out: MIC): 5 µg/mL; MIC (M. suipneumoniae TAM 6N; M. suipneumoniae TAM 6N, 6 days, 37° C., read-out: MIC): 10 µg/mL; MIC [8]: 2 µg/mL; MIC (M. suipneumoniae MS 16): 2.5 µg/mL; MIC (Bord. bronchiseptica B09): 40 µg/mL; MIC [9]: > 64 µg/mL; MIC [10]: 8 µg/mL; MIC ([11]; M. suipneumoniae J2206/183^b, 6 days, 37° C., read-out: MIC): 5 µg/mL; MIC (Strep. faecalis I): > 64 µg/mL; MIC [12]: > 80 µg/mL; MIC (Past. haemolytica PA5): > 80 µg/mL |
| C/C(=C\c1ncc(-c2ccc(Br)cc2)o1)C[C@@H]1OC[C@H](C[C@@H]2O[C@H]2[C@@H](C)[C@H](C)O)[C@@H](O)[C@H]1O [Example 18, 5-p-Bromophenyl-2-(1-normon-2-yl) oxazole A] | 4 µg/mL (≈ 7.66 µM) | 0.5 µg/mL (≈ 0.957 µM) | 8 µg/mL (≈ 15.3 µM) | 40 µg/mL (≈ 76.6 µM) | 8 µg/mL (≈ 15.3 µM) | 0.156 µg/mL (≈ 0.299 µM) | 0.05 µg/mL (≈ 0.0957 µM) | 10 µg/mL (≈ 19.1 µM) | > 128 µg/mL | 0.156 µg/mL (≈ 0.299 µM) | 1.25 µg/mL (≈ 2.39 µM) | 0.25 µg/mL (≈ 0.479 µM) | 0.5 µg/mL (≈ 0.957 µM) | 0.5 µg/mL (≈ 0.957 µM) | 10 µg/mL (≈ 19.1 µM) | 8 µg/mL (≈ 15.3 µM) | 40 µg/mL (≈ 76.6 µM) | 0.5 µg/mL (≈ 0.957 µM) | > 128 µg/mL | > 128 µg/mL | MIC (M. suipneumoniae HK(2)): 1 µg/mL (≈ 1.91 µM); MIC (M. suipneumoniae NB12; 144 h, M. suipneumoniae NB12, Friis broth, 0.9% agarose, 6 days, 37° C., read-out: MIC): 0.5 µg/mL (≈ 0.957 µM); MIC [3]: 0.1 µg/mL (≈ 0.191 µM); MIC (M. hyorhinis ATCC 23234): 0.25 µg/mL (≈ 0.479 µM); MIC (M. suipneumoniae TAM 6N): 1 µg/mL (≈ 1.91 µM); MIC [8]: 4 µg/mL (≈ 7.66 µM); MIC (M. suipneumoniae MS 16): 0.25 µg/mL (≈ 0.479 µM); MIC (Bord. bronchiseptica B09): 10 µg/mL (≈ 19.1 µM); MIC [9]: > 128 µg/mL; MIC [10]: 4 µg/mL (≈ 7.66 µM); MIC [11]: 1 µg/mL (≈ 1.91 µM); MIC (Strep. faecalis I): > 128 µg/mL; MIC [12]: > 80 µg/mL; MIC (Past. haemolytica PA5): 40 µg/mL (≈ 76.6 µM) |
